Legend:
[1] = Aliskiren bioavailability after jejunal administration to conscious rats, compared with oral solution by gavage; conditions: AUC relative to aliskiren oral solution (gavage)
Excerpt: (i) Jejunal Administration to Conscious rats
To test the bioavailability of formulations in the jejunum of conscious rats, a specialized rat model was established in which two different cannulas are surgically implanted in male Sprague-Dowley rats (other rats may also be used): • 1—jejunal cannula to bypass the stomach and enable direct formulation administration to the jejunum; and • 2—jugular vein cannula to determine the systematic levels of the administered dextran following jejunal administration.
Rats were allowed to recover for 4 days before the study and were deprived of food for 18 hours before the start of the study. […]
Blood samples were drawn from the jugular vein at an appropriate series of times post jejunal administration and post IV administration, (or post SC administration), plasma was prepared and levels of active ingredient were determined in each sample. The average absolute Bioavailability (aBA) achieved after jejunal administration of the formulation is calculated as described below.
Exposure values, AUC (0-T), are calculated from the area under the serum concentration versus time curve (AUC) and are determined for jejunal and intravenous administration (or SC administration). […]

conscious rats = assay: Effect of CCK-8 on food intake: volume of D-glucose solution consumed by conscious rats; format: in vivo, Sprague Dawley rats; conditions: 0.165 mg CCK-8 per rat; 30 min post administration
Procedure: Three of the above formulations (R, S and T) were prepared as follows for use in testing biological activity: Formulation R at levels of 0.165, 0.055, 0.003 mg CCK-8 per rat; Formulation S at 0.09 mg CCK-8 per rat; and Formulation T at 0.09 mg CCK-8 per rat. Thus Formulation R with 0.055 CCK-8 (% w/w) was used at 0.3 and 0.1 ml per rat to give a dose of 0.165 and 0.055 (mg per rat); Formulation R with 0.001 CCK-8 (% w/w) was used at 0.3 ml per rat to give a dose of 0.003 mg per rat; and Formulations S and T with 0.03 CCK-8 (% w/w) were both used at 0.3 ml to give a dose of 0.09 mg per rat.
The effect of oral administration of CCK8 on food intake was achieved by measuring the volume of D-glucose consumed by conscious rats (essentially using the method described by Chun-Min et al., Am. Physio. Soc. 296:R43-R50, 2009). The feeding response of conscious rats to exogenous oral CCK-8 was analyzed by measuring the volume of D-glucose solution consumed. Sprague Dawley rats cannulated at the jejunum (as described in Example 2) were fasted for 18 h. The fasted animals were administrated with a dose range of exogenous CCK8 using three formulations. Three groups served as controls: Rats administered with formulation alone; rats administered with CCK-8 in saline (0.165 mg
The volume of glucose solution consumption was measured at 30 min, 60 min and 90 min post administration. […]

COCCCOc1cc(C[C@@H](C[C@H](N)[C@@H](O)C[C@H](C(=O)NCC(C)(C)C(N)=O)C(C)C)C(C)C)ccc1OC [Aliskiren oral solution, aliskiren]
Fold from gavage [1]: 1

CSCC[C@H](NC(=O)[C@H](Cc1ccc(OS(=O)(=O)O)cc1)NC(=O)[C@@H](N)CC(=O)O)C(=O)NCC(=O)N[C@@H](Cc1c[nH]c2ccccc12)C(=O)N[C@@H](CCSC)C(=O)N[C@@H](CC(=O)O)C(=O)N[C@@H](Cc1ccccc1)C(N)=O [CCK8 in saline, Sincalide]
Average volume of glucose solution consumed (± standard error) (conscious rats): 6.80 ± 0.99 mL | Median volume of glucose solution consumed (conscious rats): 7.90 mL
